Reference: patent publication US20080275058A1, “N-Substituted-1H-Quinoline-2,4-Diones, Preparation Method Thereof, And Pharmaceutical Composition Containing The Same” (KOREA RESEARCH INSTITUTE OF CHEMICAL TECHNOLOGY, priority 2005, published 2008)
Where two headings read alike, the source gives them in different places.

Columns and labels:
5-HT2c = target: T1, 5-HT2c (Homo sapiens, UniProt P28335); experiment: Radioligand binding, 5-HT2c ([3H]Mesulergine); settings: Table 4; [3H]Mesulergine 1 nM; read-out: Binding affinity, IC50 (nM) 5-HT2c
T1 construct: purchased Euroscreen/BioSignal Packard Inc
T1 sequence (P28335 33-458): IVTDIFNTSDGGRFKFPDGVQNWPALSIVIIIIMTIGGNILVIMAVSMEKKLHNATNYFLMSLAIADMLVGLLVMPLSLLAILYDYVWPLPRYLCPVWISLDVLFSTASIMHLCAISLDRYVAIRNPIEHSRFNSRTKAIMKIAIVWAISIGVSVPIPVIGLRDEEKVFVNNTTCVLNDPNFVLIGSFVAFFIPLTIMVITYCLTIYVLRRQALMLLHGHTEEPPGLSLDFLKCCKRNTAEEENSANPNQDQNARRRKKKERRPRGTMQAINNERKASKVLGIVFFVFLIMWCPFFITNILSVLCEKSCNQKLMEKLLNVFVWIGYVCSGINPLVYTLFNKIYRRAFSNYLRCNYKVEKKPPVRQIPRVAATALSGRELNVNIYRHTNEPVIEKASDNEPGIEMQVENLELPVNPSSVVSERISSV

5-HT7 = target: T2, 5-HT7 (Homo sapiens, UniProt P34969); experiment: Radioligand binding, 5-HT7 ([3H]LSD); settings: Table 4; [3H]LSD 3 nM; read-out: Binding affinity, IC50 (nM) 5-HT7
T2 construct: purchased Euroscreen/BioSignal Packard Inc
T2 sequence (P34969 whole entry): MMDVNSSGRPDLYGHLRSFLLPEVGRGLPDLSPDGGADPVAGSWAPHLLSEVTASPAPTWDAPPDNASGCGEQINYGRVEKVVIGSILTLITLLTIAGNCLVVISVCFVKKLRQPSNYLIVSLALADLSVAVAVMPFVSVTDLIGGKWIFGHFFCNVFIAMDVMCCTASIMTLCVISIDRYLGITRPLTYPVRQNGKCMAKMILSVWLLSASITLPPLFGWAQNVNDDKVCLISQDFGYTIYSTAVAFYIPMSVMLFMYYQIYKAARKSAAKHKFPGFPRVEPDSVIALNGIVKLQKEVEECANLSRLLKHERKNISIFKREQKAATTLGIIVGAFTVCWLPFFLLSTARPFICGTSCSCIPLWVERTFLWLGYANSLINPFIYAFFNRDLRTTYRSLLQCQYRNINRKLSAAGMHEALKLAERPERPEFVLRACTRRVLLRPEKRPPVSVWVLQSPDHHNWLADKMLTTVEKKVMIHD

[1] = target: T3, Human serotonin 5-HT6 receptor (Homo sapiens, UniProt P50406); experiment: [3H]LSD binding assay on cloned 5-HT6 receptor membranes
T3 construct: made in house; host or cells: insect Sf21 cells (baculovirus vector BacPAK8)
T3 sequence (P50406 whole entry): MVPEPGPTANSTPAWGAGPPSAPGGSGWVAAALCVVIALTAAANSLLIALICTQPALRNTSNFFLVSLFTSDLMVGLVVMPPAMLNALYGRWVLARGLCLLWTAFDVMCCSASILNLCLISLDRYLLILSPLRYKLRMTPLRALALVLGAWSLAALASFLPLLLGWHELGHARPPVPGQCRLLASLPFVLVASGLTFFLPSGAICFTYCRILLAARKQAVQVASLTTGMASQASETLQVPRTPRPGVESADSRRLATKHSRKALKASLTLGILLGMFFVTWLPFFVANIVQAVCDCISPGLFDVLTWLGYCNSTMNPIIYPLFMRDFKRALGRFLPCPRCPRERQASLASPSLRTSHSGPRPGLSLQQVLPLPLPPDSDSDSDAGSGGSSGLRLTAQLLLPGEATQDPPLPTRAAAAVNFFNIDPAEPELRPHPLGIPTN

5-HT1a = target: T4, 5-HT1a (Homo sapiens, UniProt P08908); experiment: Radioligand binding, 5-HT1a ([3H]8-OH-DPAT); settings: Table 4; [3H]8-OH-DPAT 0.5 nM; read-out: Binding affinity, IC50 (nM) 5-HT1a
T4 construct: purchased Euroscreen/BioSignal Packard Inc
T4 sequence (P08908 1-422): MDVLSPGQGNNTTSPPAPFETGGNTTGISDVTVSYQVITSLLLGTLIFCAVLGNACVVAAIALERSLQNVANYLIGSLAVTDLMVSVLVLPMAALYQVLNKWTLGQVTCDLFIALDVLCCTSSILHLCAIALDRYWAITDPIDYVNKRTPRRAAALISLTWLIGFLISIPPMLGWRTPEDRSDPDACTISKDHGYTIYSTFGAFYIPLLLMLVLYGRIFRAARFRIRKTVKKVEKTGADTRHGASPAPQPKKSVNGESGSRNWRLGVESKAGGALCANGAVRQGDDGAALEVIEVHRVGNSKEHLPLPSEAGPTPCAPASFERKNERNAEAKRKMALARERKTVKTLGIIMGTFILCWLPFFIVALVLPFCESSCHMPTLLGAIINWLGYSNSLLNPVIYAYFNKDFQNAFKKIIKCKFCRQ
Method in brief: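 Per manufacturer method: commercial membranes incubated with radioligand and test compound, bound label counted.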

hD3 = target: T5, hD3 (Homo sapiens, UniProt P35462); experiment: Radioligand binding, dopamine D3 ([3H]spiperone); settings: Table 4; [3H]spiperone 1 nM; read-out: Binding affinity, IC50 (nM) D3
T5 construct: purchased BioSignal Packard Inc., Montreal, Canada
T5 sequence (P35462 whole entry): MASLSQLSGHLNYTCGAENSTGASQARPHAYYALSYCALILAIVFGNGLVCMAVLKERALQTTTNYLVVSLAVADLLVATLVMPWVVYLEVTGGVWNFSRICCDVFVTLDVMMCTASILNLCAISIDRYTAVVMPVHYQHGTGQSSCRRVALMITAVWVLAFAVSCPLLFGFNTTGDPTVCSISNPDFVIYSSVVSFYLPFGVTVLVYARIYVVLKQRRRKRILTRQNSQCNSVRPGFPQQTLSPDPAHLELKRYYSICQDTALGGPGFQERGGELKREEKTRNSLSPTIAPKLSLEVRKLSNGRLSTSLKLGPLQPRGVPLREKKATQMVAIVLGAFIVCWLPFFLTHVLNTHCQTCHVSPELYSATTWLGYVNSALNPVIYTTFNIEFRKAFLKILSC
Method in brief: (§1)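 IC50 values come from nonlinear fits of three displacement experiments, each using 7-8 test concentrations in duplicate. D2L and D3 membranes were labelled with 1 nM [3H]spiperone, and D4.2 with 0.06 nM [3H]YM-09151-2. All assays used pH 7.4 Tris buffers, with the D3 buffer adding 120 mM NaCl, KCl and CaCl2.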

hD4.2 receptor = target: T6, hD4.2 receptor (Homo sapiens, UniProt P21917, DEL265-296); experiment: Radioligand binding, dopamine D4 ([3H]YM-09151-2); settings: Table 4; [3H]YM-09151-2 0.06 nM; read-out: Binding affinity, IC50 (nM) D4
T6 construct: purchased BioSignal Packard Inc., Montreal, Canada
T6 sequence (P21917 with tags, fused parts or gaps DEL265-296): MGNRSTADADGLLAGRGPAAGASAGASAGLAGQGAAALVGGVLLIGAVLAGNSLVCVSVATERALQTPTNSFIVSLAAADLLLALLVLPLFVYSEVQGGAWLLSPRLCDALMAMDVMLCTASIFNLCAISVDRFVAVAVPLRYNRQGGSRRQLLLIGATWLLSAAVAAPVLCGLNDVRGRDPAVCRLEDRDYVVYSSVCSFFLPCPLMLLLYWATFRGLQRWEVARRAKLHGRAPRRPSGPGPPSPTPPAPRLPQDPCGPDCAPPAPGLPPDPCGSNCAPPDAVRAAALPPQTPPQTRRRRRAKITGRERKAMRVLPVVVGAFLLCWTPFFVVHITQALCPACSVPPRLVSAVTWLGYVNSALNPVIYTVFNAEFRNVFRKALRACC
Method in brief: as §1

5-HT2a = target: T7, 5-HT2a (Homo sapiens, UniProt P28223); experiment: Radioligand binding, 5-HT2a ([3H]Ketanserin); settings: Table 4; [3H]Ketanserin 1 nM; read-out: Binding affinity, IC50 (nM) 5-HT2a
T7 construct: purchased Euroscreen/BioSignal Packard Inc
T7 sequence (P28223 whole entry): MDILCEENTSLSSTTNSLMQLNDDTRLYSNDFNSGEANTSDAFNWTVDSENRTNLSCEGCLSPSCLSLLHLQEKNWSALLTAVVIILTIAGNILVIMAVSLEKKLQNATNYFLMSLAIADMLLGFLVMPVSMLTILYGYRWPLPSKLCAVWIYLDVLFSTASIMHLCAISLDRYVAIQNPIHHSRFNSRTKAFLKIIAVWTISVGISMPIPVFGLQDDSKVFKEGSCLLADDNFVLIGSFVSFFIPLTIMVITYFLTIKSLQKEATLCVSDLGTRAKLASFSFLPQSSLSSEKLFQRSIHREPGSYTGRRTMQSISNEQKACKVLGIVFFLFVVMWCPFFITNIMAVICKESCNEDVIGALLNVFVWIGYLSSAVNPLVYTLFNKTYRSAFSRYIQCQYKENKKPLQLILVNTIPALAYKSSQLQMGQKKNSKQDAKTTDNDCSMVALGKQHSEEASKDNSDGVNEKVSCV

D1 = D1 (Homo sapiens, UniProt P21728); experiment: Radioligand binding, dopamine D1; settings: Table 4; read-out: Binding affinity, IC50 (nM) D1
D1, sequence (P21728 whole entry): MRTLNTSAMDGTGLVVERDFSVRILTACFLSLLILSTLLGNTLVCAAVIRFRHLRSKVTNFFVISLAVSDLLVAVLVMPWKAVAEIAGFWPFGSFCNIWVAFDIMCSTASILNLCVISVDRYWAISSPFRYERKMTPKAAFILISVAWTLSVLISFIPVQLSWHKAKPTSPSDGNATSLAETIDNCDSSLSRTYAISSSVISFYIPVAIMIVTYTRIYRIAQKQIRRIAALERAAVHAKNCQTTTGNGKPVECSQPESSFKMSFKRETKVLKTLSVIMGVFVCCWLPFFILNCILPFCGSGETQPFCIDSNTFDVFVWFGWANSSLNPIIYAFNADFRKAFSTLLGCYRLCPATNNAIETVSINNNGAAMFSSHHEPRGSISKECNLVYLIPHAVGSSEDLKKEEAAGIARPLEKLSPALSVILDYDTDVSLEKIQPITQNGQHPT

hD2L = target: T8, hD2L (Homo sapiens, UniProt P14416); experiment: Radioligand binding, dopamine D2 ([3H]spiperone); settings: Table 4; [3H]spiperone 1 nM; read-out: Binding affinity, IC50 (nM) D2
T8 construct: purchased BioSignal Packard Inc., Montreal, Canada
T8 sequence (P14416 whole entry): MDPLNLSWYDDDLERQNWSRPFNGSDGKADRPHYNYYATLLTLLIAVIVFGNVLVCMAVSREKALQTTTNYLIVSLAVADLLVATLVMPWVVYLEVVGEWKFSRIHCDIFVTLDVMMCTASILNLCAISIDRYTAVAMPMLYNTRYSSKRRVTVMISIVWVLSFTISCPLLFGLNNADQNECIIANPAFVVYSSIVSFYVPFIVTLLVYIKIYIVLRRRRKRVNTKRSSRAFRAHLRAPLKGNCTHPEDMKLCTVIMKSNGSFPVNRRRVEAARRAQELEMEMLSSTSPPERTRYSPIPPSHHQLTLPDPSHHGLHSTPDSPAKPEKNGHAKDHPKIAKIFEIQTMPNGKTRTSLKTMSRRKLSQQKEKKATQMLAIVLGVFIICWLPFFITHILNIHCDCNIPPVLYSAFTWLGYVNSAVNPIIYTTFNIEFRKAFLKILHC
Method in brief: as §1

Rotarod deficit in mice = format: in vivo, mouse; settings: mouse, in vivo, po, unit printed as image, read-out: TD50 (median neurotoxic dose)
Experimental: (§2) The mouse was placed on a 1 inch diameter knurled plastic rod rotating at 6 rpm (Ugo-Basile, Milano, Italy), and the rotarod deficit (%) was obtained by counting the number of animals fallen from the rotating rod within 1 min [Dunham et al., 1957] at 60, 90 and 120 min after the injection of the compound according to the invention(200, 300 or 400 ? ). […] The compounds of the examples were suspended in 3% Tween 80 solution, and were administered (p.o.) 60 min before the testing.

mice = experiment: Rotarod deficit in mice; format: in vivo, mouse
Experimental: as §2

[2] = Table 2, 1.87 nM [3H]LSD, 37 C, 60 min, read-out: IC50 (nM), binding affinity to the 5-HT6 receptor
[3] = Table 4, read-out: Binding affinity, IC50 (nM) 5-HT6

Structure (SMILES)	IC50 (5-HT2c) [nM]	IC50 (5-HT7) [nM]	IC50 [1, 2] [nM]	IC50 [1, 3] [nM]	IC50 (5-HT1a) [nM]	IC50 (hD3) [nM]	IC50 (hD4.2 receptor) [nM]	IC50 (5-HT2a) [nM]	melting point [°C]	IC50 (D1) [nM]	IC50 (hD2L) [nM]	TD50 at 120 min (Rotarod deficit in mice) [mg/kg]	Rotarod deficit (%) (mice; 200 p.o. (dose unit not given))	Rotarod deficit (%) (mice; 300 p.o. (dose unit not given))	Rotarod deficit (%) (mice; 400 p.o. (dose unit not given))
CN1CCN(c2cc(Cl)cc3c2C(=O)C(C)(c2ccc(OCc4ccccc4)c(Br)c2)C(=O)N3Cc2ccccc2)CC1 (stereo not drawn) [Example 12, 1-Benzyl-3-(4-benzyloxy-3-bromo-phenyl)-7-chloro-3-methyl-5-(4-methyl-piperazin-1-yl)-1H-quinoline-2,4-dione]	1290	136	9.2	9.2	2520	153	> 10000	95	95 to 97	1240	6450	> 400	0	0	0
CC1(c2ccc(I)cc2)C(=O)c2c(N3CCNCC3)cc(Cl)cc2N(Cc2ccccc2)C1=O (stereo not drawn) [Example 21, 1-Benzyl-7-chloro-3-(4-iodo-phenyl)-3-methyl-5-piperazin-1-yl-1H-quinoline-2,4-dione]	1810	3340	6.9	6.9	468	1050	5870	553	176 to 177	1620	1640	> 400	0	0	0
CC1(c2ccc(O)cc2)C(=O)c2c(N3CCNCC3)cc(Cl)cc2N(Cc2cccc([N+](=O)[O-])c2)C1=O (stereo not drawn) [Example 24, 7-Chloro-3-(4-hydroxy-phenyl)-3-methyl-1-(3-nitro-benzyl)-5-piperazin-1-yl-1H-quinoline-2,4-dione]	6090	> 10000	14.5	14.5	> 10000	2330	> 10000	5040	252 to 253	4930	3000	> 400	0	0	0
COc1ccc(C2(C)C(=O)c3c(N4CCNCC4)cc(Cl)cc3N(Cc3cccc(OC)c3)C2=O)cc1 (stereo not drawn) [Example 27, 7-Chloro-1-(3-methoxy-benzyl)-3-(4-methoxy-phenyl)-3-methyl-5-piperazin-1-yl-1H-quinoline-2,4-dione]	> 1000	> 1000	2.3	2.3	> 10000	2640	> 10000	> 1000	110 to 112	> 1000	> 1000	> 400	0	0	0
